This is an account of results in patent publication US5602140A, “Purine derivatives and suppressants for inflammatory diseases” (Japan Energy Corporation, priority 1994, dated 1997).

Counter-ions that a name gives are not always drawn.

Assay [1] deals with platelet aggregation induced by PAF. The assay can be described thus: Anti-PAF activity: inhibition of platelet aggregation induced by PAF in platelet rich plasma. It counts as cell-based, rabbit. Particulars: Oryctolagus cuniculus, PAF 10 nM, test compound concentration 30 μM, read-out: Inhibitory rate. The procedure:
Anti-PAF activity of purine derivatives of the present invention was evaluated in the inhibition of platelet aggregation induced by PAF (platelet activation factor).
In the present evaluation, blood was drawn from rabbit and 9 volumes of the blood was added with 1 volume of 3.8% sodium citrate solution, centrifuged at 2,000 rpm for 3 min. to give platelet rich plasma (PRP). In a platelet aggregation determination apparatus, 200 μl of the PRP solution and 25 μl of a solution prepared from a predetermined amount of the test compound were mixed and incubated for 2 min. The incubated mixture was added with 25 μl of a solution containing a predetermined amount of PAF to cause platelet aggregation induced by PAF in the test solution. A concentration of PAF was 10 nM in the test solution. The inhibitory rate against platelet aggregation induced by PAF was calculated from the changes of transmission accompanied by the platelet aggregation.
Various concentrations of the test compounds in the test solution were selected to investigate the relationship between the concentration and the inhibitory rate for the evaluation of inhibitory rate of platelet aggregation induced by PAF. […] The inhibitory rate for the positive control compound, CV-3988 (rac-3-(N-n-octadecylcarbamoyl)-2-methoxypropyl-2-thiazolium ethyl phosphate) is also shown in Table 4.

For assay [2] the test system is unchanged. Particulars: Life Science, 32, 1975-1982 (1983); cited from earlier work.
Assay [3] deals with TXA2 synthesis (crude TXA2 synthetase). The assay can be described thus: Inhibition of TXA2 synthesis (crude TXA2 synthetase, labeled arachidonic acid, RIA). The assay is classed as biochemical, human. The conditions noted are these: TXA2 formation, 37° C., 10 min. The procedure:
Inhibitory effect against TXA2 synthesis was evaluated by the method shown below determining the formation of TXA2 as an arachidonic acid metabolite in the presence of purine derivatives of the present invention.
TXA2 (thromboxane A2) is reported to be synthesized by TXA2 synthetase in arachidonic acid cascade via a cyclic peroxide (PGH2) formed by cyclooxygenase system. Crude TXA2 synthetase was prepared by the following method in the present invention. Blood drawn from healthy volunteer was centrifuged at 200 G for 15 min. and the resulting supernatant was further centrifuged at 2,000 G for 10 min. to give precipitates. The precipitates were homogenized in 0.01M phosphate buffer and centrifuged at 1,000 G for 10 min. to give a supernatant. The resultant supernatant was used as a crude TXA2 synthetase in the following processes. […] The reaction solution was incubated at 37° C. for 10 min. and TXA2 formed in the reaction mixture was determined by RIA method using a commercially available kit (Amersham Co., Ltd., RIA kit). The inhibitory rate was calculated from the difference between the determined amount of formed TXA2 and that carried out in the absence of the test compound. When the difference of formed amount of TXA2 was 0 (zero), then the inhibitory rate was made 0% and when the formation of TXA2 was equal to that of solvent control without TXA2 synthetase, then the inhibitory rate was made 100%.
The inhibitory rate was estimated for various concentrations of said test compounds and the concentration of 50%-inhibition (IC50) was regressively calculated. The inhibitory effect against TXA2 formation was evaluated using IC50.

The test system of assay [4] is TXA2 synthesis (crude TXA2 synthetase). The conditions noted are these: J. Med. Chem., 24, 1139-1149 (1981); cited from earlier work.

Turning to `CCCCCCCCCCCCCCCCCCNC(=O)OCC(COP(=O)([O-])OCC[n+]1ccsc1)OC` (racemic) [CV-3988, rac-3-(N-n-octadecylcarbamoyl)-2-methoxypropyl-2-thiazolium ethyl phosphate, reference compound], the inhibition at 30 µM in assay [1] is 78%. Further, in assay [2], the “anti-PAF activity (literature, in words)” value is listed as “high anti-PAF activity”.
What is called IC50 is the concentration needed to halve the response being measured. A lower IC50 goes with inhibition by little substance. As for `O=C(O)/C=C/c1ccc(Cn2ccnc2)cc1` [Ozagrel HCl, reference compound], in assay [3], it took 17 nM to reach half-maximal inhibition (IC50). For the same compound, the “inhibitory effect against TXA2 synthesis (literature, in words)” value in assay [4] is given as “very high inhibitory effect against TXA2 synthesis”.
